{"source": "paper PMC7582714", "about": "“Cooperative Binding of the Cationic Porphyrin Tris-T4 Enhances Catalytic Activity of 20S Proteasome Unveiling a Complex Distribution of Functional States” (International Journal of Molecular Sciences, 2020)", "key": {"h20S": {"system": "h20S", "details": "cited from earlier work"}, "[1]": {"system": "T1, yeast α3ΔN mutant of 20S proteasome", "T1 construct": "Yeast CP 20S wild-type and the mutant form, α3ΔN, were purified as previously reported; made in house; host or cells: yeast", "T1 sequence (P23639 whole entry, stated change not applied)": "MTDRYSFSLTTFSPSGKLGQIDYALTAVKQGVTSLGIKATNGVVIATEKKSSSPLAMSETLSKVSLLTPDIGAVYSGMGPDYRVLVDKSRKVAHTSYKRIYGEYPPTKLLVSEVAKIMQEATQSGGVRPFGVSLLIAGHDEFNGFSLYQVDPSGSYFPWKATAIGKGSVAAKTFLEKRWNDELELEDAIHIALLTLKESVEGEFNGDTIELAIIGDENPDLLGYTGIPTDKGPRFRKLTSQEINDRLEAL", "T1 sequence (P32379 whole entry, stated change not applied, further chain)": "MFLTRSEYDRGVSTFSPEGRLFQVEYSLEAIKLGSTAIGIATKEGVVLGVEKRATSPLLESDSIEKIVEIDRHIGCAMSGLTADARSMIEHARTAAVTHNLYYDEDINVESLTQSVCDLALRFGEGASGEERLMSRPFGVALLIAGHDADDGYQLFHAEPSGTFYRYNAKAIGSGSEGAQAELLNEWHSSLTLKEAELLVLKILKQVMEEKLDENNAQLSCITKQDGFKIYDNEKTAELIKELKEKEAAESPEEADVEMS", "T1 sequence (P40303 whole entry, stated change not applied, further chain)": "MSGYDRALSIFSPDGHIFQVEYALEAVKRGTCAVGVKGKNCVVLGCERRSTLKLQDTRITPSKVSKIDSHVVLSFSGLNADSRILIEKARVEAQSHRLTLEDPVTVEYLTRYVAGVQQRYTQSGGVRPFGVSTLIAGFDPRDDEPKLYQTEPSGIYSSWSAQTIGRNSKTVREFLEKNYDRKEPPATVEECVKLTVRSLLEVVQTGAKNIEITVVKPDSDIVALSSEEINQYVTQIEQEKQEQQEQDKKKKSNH", "T1 sequence (P40302 whole entry, stated change not applied, further chain)": "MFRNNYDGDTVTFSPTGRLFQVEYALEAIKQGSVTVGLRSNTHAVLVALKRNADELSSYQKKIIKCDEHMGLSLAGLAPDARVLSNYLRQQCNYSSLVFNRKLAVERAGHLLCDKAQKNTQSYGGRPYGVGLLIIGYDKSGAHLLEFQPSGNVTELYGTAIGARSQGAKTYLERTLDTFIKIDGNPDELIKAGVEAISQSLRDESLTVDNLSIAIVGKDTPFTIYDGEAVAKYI", "T1 sequence (P21243 whole entry, stated change not applied, further chain)": "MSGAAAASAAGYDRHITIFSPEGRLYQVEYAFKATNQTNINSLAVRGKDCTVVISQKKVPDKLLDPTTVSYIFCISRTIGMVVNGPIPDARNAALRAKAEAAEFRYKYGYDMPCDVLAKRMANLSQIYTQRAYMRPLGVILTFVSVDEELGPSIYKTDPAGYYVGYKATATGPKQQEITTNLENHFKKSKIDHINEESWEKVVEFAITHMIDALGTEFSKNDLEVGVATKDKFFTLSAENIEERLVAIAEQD", "assay": "20S proteasome chymotryptic-like activity assay (Suc-LLVY-AMC), steady-state kinetics vs Tris-T4 concentration", "format": "biochemical", "text": "(§1) Then, we have extended the investigation on the functional modulation of the chymotryptic-like activity by Tris-T4 porphyrin also to wt y20S proteasome and to its mutant α3ΔN, which is characterized by a significant enhancement of the enzymatic activity, ascribed to disruption of the gate closing mechanism.\n(§2) In addition, for the sake of clarity, in Scheme 1 some of these parameters are reported as interaction ratios, namely α = KAU/KAL, β = KBU/KBL, γ = KBU/KAU, and δ = KBL/KAL. Finally, σA and σB refer to the eventual effect of Tris-T4 binding on the catalytic rate-limiting step kcat of either state A and/or state B (see Scheme 1). […] (1) kobscat=kcatA⋅(1+KAL⋅[Tris_T4])^n+LL⋅kcatB⋅(1+KBL⋅[Tris_T4])^n/(1+KAL⋅[Tris_T4])^n+LL⋅(1+KBL⋅[Tris_T4])^n (2) Kobsm=K0m⋅(1+KAU⋅[Tris_T4])^n+LU⋅(1+KBI⋅[Tris_T4])^m⋅(1+KBU⋅[Tris_T4])^n/(1+KAL⋅[Tris_T4])^n+LL⋅(1+KBL⋅[Tris_T4])^n (3) kobscat/Kobsm=kcatA/KmA⋅(1+KAU⋅[Tris_T4])^n+LU⋅kcatB/KmB⋅(1+KBI⋅[Tris_T4])^m⋅(1+KBU⋅[Tris_T4])^n/(1+KAU⋅[Tris_T4])^n+LU⋅(1+KBI⋅[Tris_T4])^m⋅(1+KBU⋅[Tris_T4])^n\n(§3) 20S proteasome activity assays were performed in vitro in the assay buffer (i.e., 50 mM TrisHCl, pH 8.0) by mixing 20S proteasome (2 nM) with increasing concentrations (0.1–10 µM) of Tris-T4 incubating for 30 min at 37 °C. Then, varying concentrations (between 5 µM and 100 µM) of fluorogenic peptide were added in a 384 multiwell black plate. A minimum of three replicates were performed for each data point. […] Data relative to CP activities at different substrate concentrations have been analyzed by a double reciprocal Lineweaver–Burk plot, according to the following equation:(4) [E0]/v=Km/±kcatx 1/[S]+1/kcat where (E0) is the enzyme concentration, ν is the observed velocity (expressed as moles of substrate cleaved per time interval unit), (S) is the substrate concentration, Km is the Michaelis–Menten equilibrium constant, referring to the affinity for substrate, and kcat is the velocity of the rate-limiting step. All curve fitting and statistical analysis were carried out using the non-linear fitting tool (NLFit) and MatLab (The Math works Inc., Natick, MA, USA). The parametric data fitting was based on nonlinear regression and the method of least squares. Model discrimination and choice was based on the goodness of fit. The goodness of fit was evaluated by visual examination of the fitted curves, 95% confidence bounds for the fitted coefficients and statistical analysis for determining the square of the multiple correlation coefficient (R^2).The Gibbs free energy difference (ΔG^0 = −RT lnK) was calculated using the values of the equilibrium constants reported in Table 1 and corresponds to −ΔG^0 of the considered conformational transition equilibrium as depicted in Scheme 1."}, "h20S proteasome": {"system": "T2, h20S proteasome", "T2 construct": "purchased Boston Biochem", "assay": "STD and WaterLOGSY NMR interaction study", "format": "binding, human", "details": "Tris-T4 175 μM, 20S 860 nM; 50 mM Hepes, 100 mM NaCl, 1mM DTT", "procedure": "For NMR interaction studies, Saturation Transfer Difference (STD) and WaterLogsy (WL) experiments were employed to derive the ligand binding epitope.\nAs a starting point, the Tris-T4 structure has been analyzed by ^1H NMR spectroscopy in the buffer (50 mM Hepes, 100 mM NaCl and 1mM DTT). The ^1H chemical shift assignments of Tris-T4 are reported in Supplementary Figure S1. Both STD- and WL-NMR spectra of Tris-T4 were acquired in a 200-fold excess over the h20S proteasome.\nThen, to identify the ligand moiety more closely interacting with the protein, we evaluated and compared the saturation effects of the individual Tris-T4 proton resonances (ISTD = I0 − Isat). The signal showing the largest ISTD/I0 value, the para phenyl proton, was normalized to 100% (Figure 7). The relative degree of saturation of the individual protons, normalized to that of the para phenyl proton, was then used to compare the STD effect."}, "wt y20S proteasome": {"system": "T3, wt y20S proteasome", "T3 construct": "Yeast CP 20S wild-type and the mutant form, α3ΔN, were purified as previously reported; made in house; host or cells: yeast", "assay": "20S proteasome chymotryptic-like activity assay (Suc-LLVY-AMC), steady-state kinetics vs Tris-T4 concentration", "format": "biochemical, yeast", "text": "as §1, §2, §3"}, "[2]": {"system": "purified rabbit 20S proteasome", "parameters": "method as in PMID 22642538", "details": "100 µM fluorogenic substrate; apparent inhibition; read-out: IC50, chymotryptic-like activity; cited from earlier work"}, "human 20S proteasome": {"system": "T4, human 20S proteasome", "T4 construct": "purchased Boston Biochem", "assay": "20S proteasome chymotryptic-like activity assay (Suc-LLVY-AMC), steady-state kinetics vs Tris-T4 concentration", "format": "biochemical", "text": "In order to better characterize the effect of Tris-T4 on the functional properties of the 20S proteasome, we have carried out an investigation on the steady-state chymotryptic-like activity of h20S as a function of Tris-T4 concentration, employing different substrate concentrations.\nas §2, §3"}, "[3]": {"details": "Michaelis-Menten constant in state A"}, "[4]": {"details": "state A, substrate-bound ES complex"}, "[5]": {"details": "state B, substrate-bound ES complex"}, "[6]": {"details": "Michaelis-Menten constant in state B (stabilized by Tris-T4)"}}}
{"compound": "C[n+]1ccc(-c2c3nc(c(-c4cc[n+](C)cc4)c4ccc([nH]4)c(-c4cc[n+](C)cc4)c4nc(c(-c5cc[n+](C)cc5)c5ccc2[nH]5)C=C4)C=C3)cc1", "note": "[H2T4, meso-tetrakis (4-N-methylpyridyl)-porphyrin]", "values": [{"measurement": "mode of action on h20S", "setting": "h20S", "result": "competitive inhibitor"}]}
{"compound": "C[n+]1ccc(-c2ccc(-c3c4nc(c(-c5ccc(-c6cc[n+](C)cc6)cc5)c5ccc([nH]5)c(-c5ccc(-c6cc[n+](C)cc6)cc5)c5nc(c(-c6ccc(-c7cc[n+](C)cc7)cc6)c6ccc3[nH]6)C=C5)C=C4)cc2)cc1", "note": "[pTMPyPP4, meso-tetrakis (4-N-methylphenyl-pyridyl)-porphyrin]", "values": [{"measurement": "mode of action on h20S", "setting": "h20S", "result": "allosteric inhibitor"}]}
{"compound": "C[n+]1ccc(-c2c3nc(c(-c4cc[n+](C)cc4)c4ccc([nH]4)c(-c4cc[n+](C)cc4)c4nc(c(-c5ccccc5)c5ccc2[nH]5)C=C4)C=C3)cc1", "note": "[Tris-T4, 5-(phenyl)-10,15,20-(tri N-methyl-4-pyridyl) porphyrin]", "values": [{"measurement": "m, number of competitive inhibitory sites", "setting": "[1]; Eq 1-3", "result": 1}, {"measurement": "n, number of concerted allosteric binding sites for Tris-T4", "setting": "[1]; Eq 1-3", "result": 2}, {"measurement": "KmA", "setting": "[1]; [3]", "result": "4.1(± 0.6) × 10^−3 M"}, {"measurement": "KmB", "setting": "[1]; Michaelis-Menten constant in state B", "result": "1.07(± 0.27) × 10^−2 M"}, {"measurement": "effect on chymotryptic-like activity", "setting": "[1]; Tris-T4 0-5 μM, no activation", "result": "only the competitive inhibitory effect is observed"}, {"measurement": "LU, equilibrium constant between A and B", "setting": "[1]; absence of the substrate", "result": "3.9(± 0.6) × 10^−2"}, {"measurement": "KAU, affinity constant for Tris-T4", "setting": "[1]; state A, absence of substrate", "result": "3.0(± 0.5) × 10^5 M^−1"}, {"measurement": "KAL, affinity constant for Tris-T4", "setting": "[1]; [4]", "result": "1.2(± 0.4) × 10^5 M^−1"}, {"measurement": "kcatA", "setting": "[1]; state A, same kcat imposed for both states", "result": "49.5 ± 5.6", "unit": "s⁻¹"}, {"measurement": "KBI, affinity constant for Tris-T4 to the inhibitory competitive site", "setting": "[1]; state B", "result": "2.5(± 0.4) × 10^6 M^−1"}, {"measurement": "KBU, affinity constant for Tris-T4", "setting": "[1]; state B, absence of substrate", "result": "9.0(± 1.8) × 10^7 M^−1"}, {"measurement": "KBL, affinity constant for Tris-T4", "setting": "[1]; [5]", "result": "1.3(± 0.3) × 10^8 M^−1"}, {"measurement": "kcatB", "setting": "[1]; state B, same kcat imposed for both states", "result": "49.5 ± 5.6", "unit": "s⁻¹"}, {"measurement": "LL, equilibrium constant between A and B", "setting": "[1]; substrate-bound ES complex", "result": "1.5(± 1.0) × 10^−2"}, {"measurement": "STD and WL-NMR spectra, interaction", "setting": "h20S proteasome", "result": "positive signals"}, {"measurement": "m, number of competitive inhibitory sites", "setting": "wt y20S proteasome; Eq 1-3", "result": 1}, {"measurement": "n, number of concerted allosteric binding sites for Tris-T4", "setting": "wt y20S proteasome; Eq 1-3", "result": 2}, {"measurement": "KmA", "setting": "wt y20S proteasome; [3]", "result": "1.17(± 0.22) × 10^−4 M"}, {"measurement": "KmB", "setting": "wt y20S proteasome; [6]", "result": "9.04(± 1.82) × 10^−6 M"}, {"measurement": "effect on chymotryptic-like activity at higher Tris-T4 concentrations", "setting": "wt y20S proteasome; above 1 μM Tris-T4, overwhelms the activation", "result": "competitive inhibitory effect"}, {"measurement": "LU, equilibrium constant between A and B", "setting": "wt y20S proteasome; absence of the substrate", "result": "6.0(± 1.0) × 10^−4 (2)"}, {"measurement": "Tris-T4 concentration at which activation is essentially completed", "setting": "wt y20S proteasome; chymotryptic-like activity", "result": 1, "unit": "µM"}, {"measurement": "kcatA", "setting": "wt y20S proteasome; rate-limiting step in state A, fit of Eq 1-3", "result": "0.95 ± 0.15", "unit": "s⁻¹"}, {"measurement": "kcatB", "setting": "wt y20S proteasome; rate-limiting step in state B (stabilized by Tris-T4)", "result": "0.17 ± 0.03", "unit": "s⁻¹"}, {"measurement": "KAU, affinity constant for Tris-T4", "setting": "wt y20S proteasome; state A, absence of substrate", "result": "3.0(± 0.5) × 10^5 M^−1"}, {"measurement": "KBI, affinity constant for Tris-T4 to the inhibitory competitive site", "setting": "wt y20S proteasome; state B", "result": "2.5(± 0.4) × 10^6 M^−1"}, {"measurement": "KBU, affinity constant for Tris-T4", "setting": "wt y20S proteasome; state B, absence of substrate", "result": "9.0(± 1.8) × 10^7 M^−1"}, {"measurement": "KBL, affinity constant for Tris-T4", "setting": "wt y20S proteasome; [5]", "result": "1.3(± 0.3) × 10^8 M^−1"}, {"measurement": "LL, equilibrium constant between A and B", "setting": "wt y20S proteasome; substrate-bound ES complex", "result": "7.8(± 1.5) × 10^−3 (2)"}, {"measurement": "IC50", "setting": "[2]", "result": "0.92 ± 0.06", "unit": "µM"}, {"measurement": "effect on chymotryptic-like activity", "setting": "human 20S proteasome; (Substrate) < 25 µM, Tris-T4 0-10 μM", "result": "activator"}, {"measurement": "m, number of competitive inhibitory sites", "setting": "human 20S proteasome; Eq 1-3", "result": 0}, {"measurement": "KmA", "setting": "human 20S proteasome; [3]", "result": "1.95(± 0.37) × 10^−3 M"}, {"measurement": "KmB", "setting": "human 20S proteasome; [6]", "result": "1.5(± 0.3) × 10^−4 M"}, {"measurement": "LU, equilibrium constant between A and B", "setting": "human 20S proteasome; absence of the substrate, floating parameter of the two-state model", "result": "3.0(± 0.5) × 10^−6 (3)"}, {"measurement": "Tris-T4 concentration at which activation is essentially completed", "setting": "human 20S proteasome; chymotryptic-like activity", "result": 3, "unit": "µM"}, {"measurement": "n, number of concerted allosteric binding sites for Tris-T4", "setting": "human 20S proteasome; minimum value, Eq 1-3", "result": 3}, {"measurement": "kcatA", "setting": "human 20S proteasome; rate-limiting step in state A, fit of Eq 1-3, substrate ≤ 25 μM, pH 8.0, 37 °C", "result": "11.5 ± 1.3", "unit": "s⁻¹"}, {"measurement": "kcatB", "setting": "human 20S proteasome; rate-limiting step in state B (stabilized by Tris-T4), fit of Eq 1-3", "result": "0.32 ± 0.05", "unit": "s⁻¹"}, {"measurement": "KAU, affinity constant for Tris-T4", "setting": "human 20S proteasome; state A, absence of substrate", "result": "2.0(± 0.3) × 10^4 M^−1"}, {"measurement": "KAL, affinity constant for Tris-T4", "setting": "human 20S proteasome; [4]", "result": "1.2(± 0.3) × 10^4 M^−1"}, {"measurement": "KBU, affinity constant for Tris-T4", "setting": "human 20S proteasome; state B, absence of substrate", "result": "8.2(± 1.2) × 10^7 M^−1"}, {"measurement": "KBL, affinity constant for Tris-T4", "setting": "human 20S proteasome; [5]", "result": "1.35(± 0.28) × 10^8 M^−1"}, {"measurement": "LL, equilibrium constant between A and B", "setting": "human 20S proteasome; substrate-bound ES complex", "result": "3.9(± 0.6) × 10^−5 (3)"}, {"measurement": "free energy contribution of each Tris-T4 binding step (RTln(KBL/KAL))", "setting": "human 20S proteasome; substrate-bound state", "result": 23.9, "unit": "kJ/mol"}, {"measurement": "free energy contribution of each Tris-T4 binding step (RTln(KBU/KAU))", "setting": "human 20S proteasome; substrate-free conformation", "result": 21.4, "unit": "kJ/mol"}, {"measurement": "free energy for the A → B transition in favor of the B functional state (RTlnLUγ^3)", "setting": "human 20S proteasome; substrate-free porphyrin triple-bound enzyme", "result": 31.4, "unit": "kJ/mol"}]}
